Data reported in article PMC9127750, “Structure-based design of CDC42 effector interaction inhibitors for the treatment of cancer” (Cell reports, 2022).
“And” between values parts separate entries of the source, which are not always exact repeats. Equal entries are not always repeated.

Test system: WM3248 melanoma cells, 486 antibodies
Assay: Reverse phase protein arrays (RPPA)
Format: cell-based, Human
Excerpt: Pellets were snap frozen in liquid nitrogen and shipped to MD Anderson Cancer Center core RPPA facility for RPPA analysis (Table S5). Three biological replicates for each sample were generated.
Nomenclatures on the RPPA heatmaps: name_of_antibody.species_of_antibody.status_of_antibody. V - antibody validated; C - validation of antibody in progress; Q - antibody nonspecific; E – under evaluation; antibodies raised in M - mouse, G - goat, R - rabbit, or T - rat.

[1] = level 20 normalized to 0, mean of 3
[2] = level 20 normalized to 0, single replicates

CN(C)c1cccc(Nc2cc(-c3ccccc3)nc(C3CCNCC3)n2)c1 [ARN22089, N1,N1-dimethyl-N3-(6-phenyl-2-(piperidin-4-yl)pyrimidin-4-yl)benzene-1,3-diamine]
MEK1_pS217_S221.R.V Norm_10 (level 10 vs 0, replicates): 0.653 and 1.014
MEK2.R.V Norm_10 (level 10 vs 0, replicates): 0.958
MERIT40.R.C Norm_10 (level 10 vs 0, replicates): 0.835 and 0.967 and 1.096
MERIT40_pS29.R.V Norm_10 (level 10 vs 0, replicates): 1.054 and 0.952 and 1.159
METTL3.R.V Norm_10 (level 10 vs 0, replicates): 0.943 and 1.355 and 1.161
MIF.R.C Norm_10 (level 10 vs 0, replicates): 0.886 and 1.129 and 0.994
MIG6.R.V Norm_10 (level 10 vs 0, replicates): 0.854 and 1.033 and 0.924
MITF.R.V Norm_10 (level 10 vs 0, replicates): 1.203 and 1.053
MLH1.M.V Norm_10 (level 10 vs 0, replicates): 0.862 and 0.921 and 1.113
MLKL.R.V Norm_10 (level 10 vs 0, replicates): 0.834 and 0.796
MMP2.R.V Norm_10 (level 10 vs 0, replicates): 0.901 and 0.975 and 0.933
MMP14.R.V Norm_10 (level 10 vs 0, replicates): 1.370 and 1.223 and 1.159
MR1.M.C Norm_10 (level 10 vs 0, replicates): 0.964 and 0.975
MRAP.R.C Norm_10 (level 10 vs 0, replicates): 1.105 and 1.029 and 0.983
MSH2.R.C Norm_10 (level 10 vs 0, replicates): 0.935 and 1.122
MSH6.R.C Norm_10 (level 10 vs 0, replicates): 1.082 and 1.155
MSI2.R.C Norm_10 (level 10 vs 0, replicates): 1.122 and 1.158 and 0.948
MTCO1.M.V Norm_10 (level 10 vs 0, replicates): 0.961 and 1.134 and 1.079
MTSS1.M.C Norm_10 (level 10 vs 0, replicates): 0.883 and 1.065
Mcl.1.R.V Norm_10 (level 10 vs 0, replicates): 0.859 and 0.752 and 0.834
MelanA.R.C Norm_10 (level 10 vs 0, replicates): 0.771 and 0.904 and 1.047
Melanoma.gp100.R.C Norm_10 (level 10 vs 0, replicates): 0.993 and 0.873 and 0.988
Merlin.R.C Norm_10 (level 10 vs 0, replicates): 1.228 and 1.105
Midkine.R.V Norm_10 (level 10 vs 0, replicates): 0.894 and 0.939 and 0.959
Mitofusin.1.R.V Norm_10 (level 10 vs 0, replicates): 0.986 and 0.948 and 0.964
Mitofusin.2.R.V Norm_10 (level 10 vs 0, replicates): 0.858 and 0.863 and 1.224
Mnk1.R.V Norm_10 (level 10 vs 0, replicates): 0.920 and 0.841 and 0.963
mTOR.R.V Norm_10 (level 10 vs 0, replicates): 0.942 and 0.902 and 1.003
mTOR_pS2448.R.C Norm_10 (level 10 vs 0, replicates): 1.029 and 0.921 and 1.128
TSC1.R.C Norm_20 Average [1]: 0.903
TTF1.R.V Norm_20 Average [1]: 1.162
TUFM.R.V Norm_20 Average [1]: 0.835
Tuberin.R.V Norm_20 Average [1]: 1.019
Tuberin_pT1462.R.V Norm_20 Average [1]: 1.096
Twist.M.C Norm_20 Average [1]: 0.916
Tyro3.R.V Norm_20 Average [1]: 1.270
U.Histone.H2B.R.C Norm_20 Average [1]: 2.670
UBQLN4.M.C Norm_20 Average [1]: 0.936
UGT1A.M.V Norm_20 Average [1]: 0.975
ULK1_pS757.R.C Norm_20 Average [1]: 0.888
UVRAG.R.C Norm_20 Average [1]: 1.003
VASP.R.V Norm_20 Average [1]: 0.936
VAV1.R.C Norm_20 Average [1]: 1.004
VEGFR.2.R.V Norm_20 Average [1]: 0.966
VEGFR.2_pY1175.R.C Norm_20 Average [1]: 0.978
VHL.EPPK1.M.C Norm_20 Average [1]: 0.882
VHL.R.C Norm_20 Average [1]: 0.906
Vinculin.M.V Norm_20 Average [1]: 0.932
WIPI1.R.C Norm_20 Average [1]: 1.388
WIPI2.R.C Norm_20 Average [1]: 1.126
WTAP.R.V Norm_20 Average [1]: 1.278
Wee1.R.C Norm_20 Average [1]: 0.913
Wee1_pS642.R.C Norm_20 Average [1]: 0.939
XIAP.R.C Norm_20 Average [1]: 0.959
XPA.M.V Norm_20 Average [1]: 0.905
XPF.R.C Norm_20 Average [1]: 0.890
YAP.R.C Norm_20 Average [1]: 0.956
YAP_pS127.R.V Norm_20 Average [1]: 1.018
YB1_pS102.R.V Norm_20 Average [1]: 0.999
YES1.R.V Norm_20 Average [1]: 0.970
YTHDF2.R.V Norm_20 Average [1]: 1.210
YTHDF3.R.C Norm_20 Average [1]: 1.032
ZAP.70.R.V Norm_20 Average [1]: 0.888
ZEB1.R.V Norm_20 Average [1]: 0.961
TSC1.R.C Norm_20_1 to Norm_20_3 [2]: 1.029 and 0.819 and 0.861
TTF1.R.V Norm_20_1 to Norm_20_3 [2]: 1.129 and 1.026 and 1.331
TUFM.R.V Norm_20_1 to Norm_20_3 [2]: 0.786 and 0.994 and 0.727
Tuberin.R.V Norm_20_1 to Norm_20_3 [2]: 0.859 and 0.737 and 1.461
Tuberin_pT1462.R.V Norm_20_1 to Norm_20_3 [2]: 1.032 and 1.164
Twist.M.C Norm_20_1 to Norm_20_3 [2]: 0.837 and 0.972
Tyro3.R.V Norm_20_1 to Norm_20_3 [2]: 1.252 and 1.345 and 1.211
U.Histone.H2B.R.C Norm_20_1 to Norm_20_3 [2]: 1.699 and 5.734 and 0.577
UBAC1.R.V Norm_20_1 to Norm_20_3 [2]: 1.032 and 1.010 and 1.218
UBQLN4.M.C Norm_20_1 to Norm_20_3 [2]: 0.990 and 0.917 and 0.902
UGT1A.M.V Norm_20_1 to Norm_20_3 [2]: 0.904 and 1.048 and 0.973
ULK1_pS757.R.C Norm_20_1 to Norm_20_3 [2]: 0.939 and 0.770 and 0.955
UQCRC2.M.C Norm_20_1 to Norm_20_3 [2]: 0.954 and 1.047 and 1.204
UVRAG.R.C Norm_20_1 to Norm_20_3 [2]: 1.021 and 1.000 and 0.987
VASP.R.V Norm_20_1 to Norm_20_3 [2]: 0.965 and 0.910 and 0.933
VAV1.R.C Norm_20_1 to Norm_20_3 [2]: 1.081 and 0.961 and 0.970
VEGFR.2.R.V Norm_20_1 to Norm_20_3 [2]: 0.959 and 0.914 and 1.026
VEGFR.2_pY1175.R.C Norm_20_1 to Norm_20_3 [2]: 0.916 and 1.050 and 0.968
